Test results taken from patent US4232035A, “Carbamate pesticidal compounds compositions and methods of use” (priority 1975, dated 1980).

Experiments:
[1] = tested on: bean aphid (Aphis fabae Scop.); assay: Bean Aphid Foliage Spray Test; type: in vivo; design: key: A: excellent control; B: partial control; C: no control; conditions: 500 parts per million foliage spray; 24 hour holding period
Protocol: (§1) Suspensions of the test compounds were prepared by dissolving one gram of compound in 50 milliliters of acetone in which had been dissolved 0.1 gram (10 percent of the weight of compound) of an alkylphenoxy polyethoxyethanol surfactant, as an emulsifying or dispersing agent. The resulting solution was mixed into 150 milliliters of water to give roughly 200 milliliters of a suspension containing the compound in finely divided form. The thus-prepared stock suspension contained 0.5 percent by weight of compound. The test concentrations in parts per million by weight employed in the tests described hereinbelow were obtained by appropriate dilutions of the stock suspension with water. The test procedures were as follows:
Adults and nymphal stages of the bean aphid (Aphis fabae Scop.) reared on potted dwarf nasturtium plants at 65°-70° F. and 50-70 percent relative humidity, constituted the test insects. For testing purposes, the number of aphids per pot was standardized to 100-150 by trimming plants containing excess aphids.
The test compounds were formulated by diluting the stock suspension with water to give a suspension containing 500 parts of test compound per million parts of final formulation.
The potted plants (one pot per compound tested) infested with 100-150 aphids, were placed on a revolving turntable and sprayed with 100-110 milliliters of test compound formulation by use of a DeVilbiss spray gun set at 40 psig. air pressure. This application, which lasted 25 seconds, was sufficient to wet the plants to run-off. As a control, 100-110 milliliters of a water-acetone-emulsifier solution containing no test compound were also sprayed on infested plants. After spraying, the pots were placed on their sides on a sheet of white standard mimeograph paper which had been previously ruled to facilitate counting. Temperature and humidity in the test room during the 24 hour holding period were 65°-70° F. and 50-70 percent, respectively. Aphids which fell onto the paper and were unable to remain standing after being uprighted were considered dead. Aphids remaining on the plants were observed closely for movement and those which were unable to move the length of the body upon stimulation by prodding were considered dead. Percent mortality was recorded for various concentration levels.

[2] = tested on: root-knot nematode (Meloidogyne incognita var. acrita); assay: Nematode Test; type: in vivo; design: key: 1: severe galling; equal to untreated control; 2: moderate galling; 3: light galling; 4: very light galling; 5: no galling; conditions: 10 ml of 500 parts per million formulation per jar of soil; cucumber indicator crop, approximately three weeks
Protocol: as §1
Infective migratory larvae of the root-knot nematode, (Meloidogyne incognita var. acrita) were reared in the greenhouse on roots of Rutgers variety tomato plant. Infected tomato plants were removed from the culture and the roots were chopped very finely. A small amount of inoculum from the roots was added to pint Mason jars containing approximately 180 cc of soil. The jars containing the inoculum and soil were capped and incubated for one week at room temperature. During this period eggs of the nematode hatched and the larvae forms migrated into the soil.
The test compounds were formulated by diluting the stock suspension with water to give a suspension containing 500 parts of test compound per million parts of final formulation. 10 milliliters of the test formulation was added to each of two jars for each dosage treated. As a control 10 milliliters of a water-acetone-emulsifier solution containing no test compound was also added to jars containing nematode larvae. The jars were capped and the contents thoroughly mixed on a kale mill for five minutes. The jars remained capped at room temperature for a period of 48 hours and the contents were then transferred to 3 inch pots. Subsequently, the pots were seeded to cucumber as an indicator crop and placed in the green house where they were cared for in the normal fashion for growing potted cucumber for approximately three weeks. These cucumber plants were then removed from the pots, the soil washed from the roots and the amount of galling visually rated.

[3] = tested on: two-spotted mite (Tetranychus urticae Koch); assay: Mite Foliage Spray Test; type: in vivo; design: key: A: excellent control; B: partial control; C: no control; conditions: 500 parts per million foliage spray; six days
Protocol: as §1
Adults and nymphal stages of the two-spotted mite (Tetranychus urticae Koch), reared on Tendergreen bean plants at 80±5 percent relative humidity, were the test organisms. Infested leaves from a stock culture were placed on the primary leaves of two bean plants six to eight inches in height, growing in a two-and-a-half inch clay pot. 150-200 Mites, a sufficient number for testing, transferred from the excised leaves to the fresh plants in a period of twenty four hours. Following the twenty four hour transfer period, the excised leaves were removed from the infested plants. The test compounds were formulated by diluting the stock suspension with water to give a suspension containing 500 parts of test compound per million parts of final formulation. The potted plants (one pot per compound) were placed on a revolving turntable and sprayed with 100-110 milliliters of test compound formulation by use of a DeVilbiss spray gun set at 40 psig. air pressure. This application, which lasted 25 seconds, was sufficient to wet the plants to run-off. As a control, 100-110 milliliters of a water solution containing acetone and emulsifier in the same concentrations as the test compound formulation, but containing no test compound, were also sprayed on infested plants. The sprayed plants were held at 80±5 percent relative humidity for six days, after which a mortality count of motile forms was made. Microscopic examination for motile forms was made on the leaves of the test plants. Any individual which was capable of locomotion upon prodding was considered living.

[4] = Peroral toxicity to mammals (rat); conditions: in vivo, po, mortality rate of 50 percent, read-out: A.O. Rat LD50
Protocol: Certain of these compositions were also evaluated to determine their peroral toxicity to mammals. The animal selected for this experiment was the rat. The test results obtained are expressed in terms of the number of milligrams of compositions per kilogram of weight of the animal required to achieve a mortality rate of 50 percent (LD50).

[5] = tested on: southern armyworm (Prodenia eridania, (Cram.)); assay: Southern Armyworm Leaf Spray Test; type: in vivo; design: key: A: excellent control; B: partial control; C: no control; conditions: 500 parts per million leaf spray; three days
Protocol: as §1
Larvae of the southern armyworm (Prodenia eridania, (Cram.)), reared on Tendergreen bean plants at a temperature of 80°±5° F. and a relative humidity of 50±5 percent, constituted the test insects.
The test compounds were formulated by diluting the stock suspension with water to give a suspension containing 500 parts of test compound per million parts of final formulation. Potted Tendergreen bean plants of standard height and age were placed on a revolving turntable and sprayed with 100-110 milliliters of test compound formulation by use of a DeVilbiss spray gun set at 10 psig air pressure. This application, which lasted 25 seconds, was sufficient to wet plants to run-off. As a control, 100-110 milliliters of a water-acetone-emulsifier solution containing no test compound were also sprayed on infested plants. When dry, the paired leaves were separated and each one was placed in a 9 centimeter Petri dish lined with moistened filter paper. Five randomly selected larvae were introduced into each dish and the dishes were closed. The closed dishes were labeled and held at 80°-85° F. for three days. Although the larvae could easily consume the whole leaf within twenty-four hours, no more food was added. Larvae which were unable to move the length of the body, even upon stimulation by prodding, were considered dead. Percent mortality was recorded for various concentration levels.

| SMILES | Aphid, pesticidal activity rating [1] | Nematodes, nematocidal toxicity rating (galling) [2] | Mite, pesticidal activity rating [3] | LD50 [4] [mg/kg] | S. Armyworm, pesticidal activity rating [5] |
| --- | --- | --- | --- | --- | --- |
| CN(SSC(C)(C)C)C(=O)ON=C1SCCS1 | A | 5 | C | 5.6 | A |
| CN(SSC(C)(C)C)C(=O)ON=C1SC(C)(C)C(=O)N1C | A | 1 | C | 299 | A |
